Assay results from US12643887B2, “Heterocyclic derivatives with cardiomyocyte proliferation activity for treatment of heart diseases” (Tongji University, priority 2019, dated 2026).
Values belong to the molecule of their own block, whether it stands above or below them.

Columns and labels:
[1] = test system: Neonatal Rat Ventricular Myocytes (NRVMs); experiment: Myocyte proliferation assay (EdU assay) in neonatal rat ventricular myocytes; format: cell-based; details: growth relative to blank myocyte growth without compound added; for Avg 1 uM (average myocyte proliferation): compound 1 uM; for Avg 3 uM (average myocyte proliferation): compound 3 uM; for Avg 10 uM (average myocyte proliferation): compound 10 uM
Procedure, shortened: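 After 36 h compound exposure (1, 3 or 10 uM in 6% FBS/ITS DMEM, following 24 h low-serum culture), NRVMs were pulsed with EdU for 12 h. Proliferation scored by automated confocal imaging of EdU click chemistry, ab8295 immunostaining and DAPI nuclei in fixed cultures.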

human DYRK1A = target: T1, human DYRK1A (Homo sapiens, UniProt Q13627); experiment: DYRK1A enzyme assay (ADP-Glo); format: biochemical; details: ADP-Glo, ATP 60 μM; read-out: DYRK1A IC50
T1 construct: Recombinant full-length DYRK1A (expressed in E. Coli cells with an N-terminal GST tag); GST (N); purchased SignalChem D09-10G; host or cells: E. coli
Procedure, shortened: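 ADP formed is quantified by luciferase luminescence (ADP-Glo) after a 60-minute, 25 °C reaction with 60 μM ATP and 20 μM DYRKtide peptide. Enzyme: 3 nM recombinant N-terminal GST DYRK1A, given 30 min compound preincubation in Tris pH 7.5/MgCl2/BSA/DTT buffer; % inhibition versus plate controls, four-parameter IC50.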

SMILES: Cn1ncc2cc(/C=C3\N=C(Nc4ccccc4)NC3=O)ccc21 [Example 77, (Z)-5-((1-methyl-1H-indazol-5-yl)methylene)-2-(phenylamino)-3,5-dihydro-4H-imidazol-4-one]
Avg 1 uM (average myocyte proliferation) [1]: * (<10% growth relative to blank myocyte growth without compound added.) | Avg 3 uM (average myocyte proliferation) [1]: * (<10% growth relative to blank myocyte growth without compound added.) | IC50 (human DYRK1A): < 100 nM

IC50 (human DYRK1A): 100 to 1000 nM
SMILES: CN(C1=N/C(=C\c2ccc3ncsc3c2)C(=O)N1)c1ccc(N)cc1 [Example 44, (Z)-2-((4-aminophenyl)(methyl)amino)-5-(benzo[d]thiazol-6-ylmethylene)-3,5-dihydro-4H-imidazol-4-one]
Avg 1 uM (average myocyte proliferation) [1]: *** (>50%) | Avg 3 uM (average myocyte proliferation) [1]: ** (10%-50%) | Avg 10 uM (average myocyte proliferation) [1]: ** (10%-50%)

SMILES: O=C(O)CCN(C1=N/C(=C\c2ccc3c(c2)OCO3)C(=O)N1)c1ccccc1 [Example 27, (Z)-3-((4-(benzo[d][1,3]dioxol-5-ylmethylene)-5-oxo-4,5-dihydro-1H-imidazol-2-yl)(phenyl)amino)propanoic acid]
Avg 1 uM (average myocyte proliferation) [1]: * (<10% growth relative to blank myocyte growth without compound added.) | Avg 3 uM (average myocyte proliferation) [1]: * (<10% growth relative to blank myocyte growth without compound added.) | Avg 10 uM (average myocyte proliferation) [1]: ** (10%-50%) | IC50 (human DYRK1A): 1000 to 10000 nM

SMILES: O=C1NC(Nc2ccccc2)=N/C1=C\c1ccc(=O)[nH]c1 [Example 9, (Z)-5-((5-oxo-2-(phenylamino)-1,5-dihydro-4H-imidazol-4-ylidene)methyl)pyridin-2(1H)-one]
Avg 1 uM (average myocyte proliferation) [1]: * (<10% growth relative to blank myocyte growth without compound added.) | Avg 3 uM (average myocyte proliferation) [1]: ** (10%-50%) | Avg 10 uM (average myocyte proliferation) [1]: ** (10%-50%) | IC50 (human DYRK1A): 100 to 1000 nM

SMILES: CN(C1=N/C(=C\c2ccc3ncsc3c2)C(=O)N1)c1ccccc1 [Example 7, (Z)-5-(benzo[d]thiazol-6-ylmethylene)-2-(methyl(phenyl)amino)-3,5-dihydro-4H-imidazol-4-one]
Avg 1 uM (average myocyte proliferation) [1]: * (<10% growth relative to blank myocyte growth without compound added.) | Avg 3 uM (average myocyte proliferation) [1]: ** (10%-50%) | Avg 10 uM (average myocyte proliferation) [1]: * (<10% growth relative to blank myocyte growth without compound added.) | IC50 (human DYRK1A): 100 to 1000 nM

SMILES: O=C1NC(Nc2ccccc2)=N/C1=C\c1ccc2cn[nH]c2c1 [Example 54, (Z)-5-((1H-indazol-6-yl)methylene)-2-(phenylamino)-3,5-dihydro-4H-imidazol-4-one]
Avg 1 uM (average myocyte proliferation) [1]: * (<10% growth relative to blank myocyte growth without compound added.) | Avg 3 uM (average myocyte proliferation) [1]: * (<10% growth relative to blank myocyte growth without compound added.) | IC50 (human DYRK1A): > 10000 nM

SMILES: O=C1NC(N(Cc2ccccc2)c2ccccc2)=N/C1=C\c1ccc2ncsc2c1 [Example 41, (Z)-5-(benzo[d]thiazol-6-ylmethylene)-2-(benzyl(phenyl)amino)-3,5-dihydro-4H-imidazol-4-one]
Avg 1 uM (average myocyte proliferation) [1]: * (<10% growth relative to blank myocyte growth without compound added.) | Avg 3 uM (average myocyte proliferation) [1]: * (<10% growth relative to blank myocyte growth without compound added.) | Avg 10 uM (average myocyte proliferation) [1]: ** (10%-50%) | IC50 (human DYRK1A): 100 to 1000 nM

SMILES: O=C1NC(Nc2ccccc2)=N/C1=C\c1ccc2nccnc2c1 [Example 16, (Z)-2-(phenylamino)-5-(quinoxalin-6-ylmethylene)-3,5-dihydro-4H-imidazol-4-one]
Avg 1 uM (average myocyte proliferation) [1]: * (<10% growth relative to blank myocyte growth without compound added.) | Avg 3 uM (average myocyte proliferation) [1]: * (<10% growth relative to blank myocyte growth without compound added.) | IC50 (human DYRK1A): < 100 nM

IC50 (human DYRK1A): 1000 to 10000 nM
SMILES: O=C1NC(N(Cc2ccccc2)c2ccccc2)=N/C1=C\c1ccc2[nH]cnc2c1 [Example 35, (Z)-5-((1H-benzo[d]imidazol-5-yl)methylene)-2-(benzyl(phenyl)amino)-3,5-dihydro-4H-imidazol-4-one]
Avg 1 uM (average myocyte proliferation) [1]: * (<10% growth relative to blank myocyte growth without compound added.) | Avg 3 uM (average myocyte proliferation) [1]: * (<10% growth relative to blank myocyte growth without compound added.)

SMILES: CN(C1=N/C(=C\c2ccc3c(c2)OCO3)C(=O)N1)c1ccc(N)cc1 [Example 37, (Z)-2-((4-aminophenyl)(methyl)amino)-5-(benzo[d][1,3]dioxol-5-ylmethylene)-3,5-dihydro-4H-imidazol-4-one]
Avg 1 uM (average myocyte proliferation) [1]: *** (>50%) | Avg 3 uM (average myocyte proliferation) [1]: ** (10%-50%) | Avg 10 uM (average myocyte proliferation) [1]: ** (10%-50%) | IC50 (human DYRK1A): 1000 to 10000 nM

SMILES: CN(C1=N/C(=C\c2ccc3c(c2)OCCO3)C(=O)N1)c1ccccc1 [Example 8, (Z)-5-((2,3-dihydrobenzo[b][1,4]dioxin-6-yl)methylene)-2-(methyl(phenyl)amino)-3,5-dihydro-4H-imidazol-4-one]
Avg 1 uM (average myocyte proliferation) [1]: ** (10%-50%) | Avg 3 uM (average myocyte proliferation) [1]: * (<10% growth relative to blank myocyte growth without compound added.) | Avg 10 uM (average myocyte proliferation) [1]: ** (10%-50%) | IC50 (human DYRK1A): 1000 to 10000 nM
